Experimental data reported in ChEMBL document CHEMBL4507287, “Data for DCP probe MRL-650” (2021).

Key:
[1] = target: Mitogen-activated protein kinase kinase kinase 6 (Homo sapiens) (UniProt O95382); conditions: Compound concentration 1000.0 nM
[2] = target: Ephrin type-B receptor 1 (Homo sapiens) (UniProt P54762); conditions: Compound concentration 1000.0 nM
[3] = target: Tyrosine-protein kinase Fgr (Homo sapiens) (UniProt P09769); conditions: Compound concentration 1000.0 nM
[4] = target: Cyclin-dependent kinase 2 homolog (Plasmodium falciparum (isolate 3D7)) (UniProt P61075); conditions: Compound concentration 1000.0 nM
[5] = target: Serine/threonine-protein kinase PLK1 (Homo sapiens) (UniProt P53350); conditions: Compound concentration 1000.0 nM
[6] = target: Serine/threonine-protein kinase PLK3 (Homo sapiens) (UniProt Q9H4B4); conditions: Compound concentration 1000.0 nM
[7] = target: Serine/threonine-protein kinase RIO2 (Homo sapiens) (UniProt Q9BVS4); conditions: Compound concentration 1000.0 nM
[8] = target: SNF-related serine/threonine-protein kinase (Homo sapiens) (UniProt Q9NRH2); conditions: Compound concentration 1000.0 nM
[9] = test system: Epidermal growth factor receptor (Homo sapiens), P00533 [UNDEFINED MUTATION]; conditions: Compound concentration 1000.0 nM
[10] = target: Membrane-associated tyrosine- and threonine-specific cdc2-inhibitory kinase (Homo sapiens) (UniProt Q99640); conditions: Compound concentration 1000.0 nM
[11] = target: Serine/threonine-protein kinase Nek3 (Homo sapiens) (UniProt P51956); conditions: Compound concentration 1000.0 nM
[12] = target: Proto-oncogene tyrosine-protein kinase ROS (Homo sapiens) (UniProt P08922); conditions: Compound concentration 1000.0 nM
[13] = target: Wee1-like protein kinase (Homo sapiens) (UniProt P30291); conditions: Compound concentration 1000.0 nM
[14] = test system: Epidermal growth factor receptor (Homo sapiens), P00533 [L858R,T790M]; conditions: Compound concentration 1000.0 nM
[15] = target: 3-phosphoinositide-dependent protein kinase 1 (Homo sapiens) (UniProt O15530); conditions: Compound concentration 1000.0 nM
Chain of 3-phosphoinositide-dependent protein kinase 1 (Homo sapiens) (O15530 whole entry): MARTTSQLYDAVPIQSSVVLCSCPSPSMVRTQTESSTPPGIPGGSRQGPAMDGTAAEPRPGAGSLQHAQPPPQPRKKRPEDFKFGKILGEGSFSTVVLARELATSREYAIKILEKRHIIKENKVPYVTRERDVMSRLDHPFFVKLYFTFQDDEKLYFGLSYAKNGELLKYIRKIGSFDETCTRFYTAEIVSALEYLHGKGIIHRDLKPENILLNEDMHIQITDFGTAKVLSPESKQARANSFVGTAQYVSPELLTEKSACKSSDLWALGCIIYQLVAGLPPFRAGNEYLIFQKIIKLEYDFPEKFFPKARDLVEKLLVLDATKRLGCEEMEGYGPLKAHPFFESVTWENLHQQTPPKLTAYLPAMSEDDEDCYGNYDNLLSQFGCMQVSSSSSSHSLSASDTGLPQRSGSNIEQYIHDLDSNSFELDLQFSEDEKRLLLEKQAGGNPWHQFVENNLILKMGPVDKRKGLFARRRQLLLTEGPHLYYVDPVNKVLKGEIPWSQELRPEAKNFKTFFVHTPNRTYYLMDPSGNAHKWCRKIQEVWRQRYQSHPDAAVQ

[16] = target: Macrophage colony-stimulating factor 1 receptor (Homo sapiens) (UniProt P07333); conditions: Compound concentration 1000.0 nM
[17] = target: Cyclin-dependent kinase 3 (Homo sapiens) (UniProt Q00526); conditions: Compound concentration 1000.0 nM
Chain of Cyclin-dependent kinase 3 (Homo sapiens) (Q00526 whole entry, looked up): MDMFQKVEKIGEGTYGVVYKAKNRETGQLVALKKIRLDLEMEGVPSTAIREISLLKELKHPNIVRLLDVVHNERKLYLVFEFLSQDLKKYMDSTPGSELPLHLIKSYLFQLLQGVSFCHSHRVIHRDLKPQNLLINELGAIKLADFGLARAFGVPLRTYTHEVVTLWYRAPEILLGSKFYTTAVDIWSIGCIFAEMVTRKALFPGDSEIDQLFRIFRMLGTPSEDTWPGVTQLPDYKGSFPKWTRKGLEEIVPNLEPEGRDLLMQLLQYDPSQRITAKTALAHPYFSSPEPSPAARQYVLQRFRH

[18] = target: Receptor tyrosine-protein kinase erbB-4 (Homo sapiens) (UniProt Q15303); conditions: Compound concentration 1000.0 nM
[19] = test system: Tyrosine-protein kinase ABL1 (Homo sapiens), P00519 [T315I]; conditions: Compound concentration 1000.0 nM
[20] = test system: Receptor-type tyrosine-protein kinase FLT3 (Homo sapiens), P36888 [D835H]; conditions: Compound concentration 1000.0 nM
[21] = target: Calcium/calmodulin-dependent protein kinase type 1G (Homo sapiens) (UniProt Q96NX5); conditions: Compound concentration 1000.0 nM
[22] = target: Protein kinase C eta type (Homo sapiens) (UniProt P24723); conditions: Compound concentration 1000.0 nM
[23] = target: STE20-like serine/threonine-protein kinase (Homo sapiens) (UniProt Q9H2G2); conditions: Compound concentration 1000.0 nM
[24] = target: Mitogen-activated protein kinase kinase kinase 5 (Homo sapiens) (UniProt Q99683); conditions: Compound concentration 1000.0 nM
[25] = target: Bone morphogenetic protein receptor type-2 (Homo sapiens) (UniProt Q13873); conditions: Compound concentration 1000.0 nM
[26] = target: Mitogen-activated protein kinase kinase kinase 11 (Homo sapiens) (UniProt Q16584); conditions: Compound concentration 1000.0 nM
[27] = target: Homeodomain-interacting protein kinase 1 (Homo sapiens) (UniProt Q86Z02); conditions: Compound concentration 1000.0 nM
[28] = target: Serine/threonine-protein kinase PAK 2 (Homo sapiens) (UniProt Q13177); conditions: Compound concentration 1000.0 nM
[29] = target: Mitogen-activated protein kinase kinase kinase 10 (Homo sapiens) (UniProt Q02779); conditions: Compound concentration 1000.0 nM
[30] = target: Histamine H3 receptor (Homo sapiens) (UniProt Q9Y5N1); conditions: Compound concentration 10.0 uM
[31] = target: Glycogen synthase kinase-3 beta (Homo sapiens) (UniProt P49841); conditions: Compound concentration 1000.0 nM
[32] = target: Cyclin-dependent kinase 4 (Homo sapiens) (UniProt P11802); conditions: Compound concentration 1000.0 nM
Chain of Cyclin-dependent kinase 4 (Homo sapiens) (P11802 whole entry, the tested form may be a part): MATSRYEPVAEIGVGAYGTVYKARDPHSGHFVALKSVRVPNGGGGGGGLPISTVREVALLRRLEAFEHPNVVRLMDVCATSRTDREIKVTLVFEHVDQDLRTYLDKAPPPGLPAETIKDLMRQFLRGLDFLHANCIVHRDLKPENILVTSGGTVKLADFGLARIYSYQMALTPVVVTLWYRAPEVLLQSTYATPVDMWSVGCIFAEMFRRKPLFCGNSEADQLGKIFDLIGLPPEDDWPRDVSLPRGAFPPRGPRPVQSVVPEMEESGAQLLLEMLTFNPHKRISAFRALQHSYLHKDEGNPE

[33] = test system: Epidermal growth factor receptor (Homo sapiens), P00533 [UNDEFINED MUTATION]; conditions: Compound concentration 1000.0 nM; remark: listed apart in the source
[34] = target: Dual specificity mitogen-activated protein kinase kinase 1 (Homo sapiens) (UniProt Q02750); conditions: Compound concentration 1000.0 nM
[35] = target: Protein-tyrosine kinase 6 (Homo sapiens) (UniProt Q13882); conditions: Compound concentration 1000.0 nM
Chain of Protein-tyrosine kinase 6 (Homo sapiens) (Q13882 whole entry, looked up): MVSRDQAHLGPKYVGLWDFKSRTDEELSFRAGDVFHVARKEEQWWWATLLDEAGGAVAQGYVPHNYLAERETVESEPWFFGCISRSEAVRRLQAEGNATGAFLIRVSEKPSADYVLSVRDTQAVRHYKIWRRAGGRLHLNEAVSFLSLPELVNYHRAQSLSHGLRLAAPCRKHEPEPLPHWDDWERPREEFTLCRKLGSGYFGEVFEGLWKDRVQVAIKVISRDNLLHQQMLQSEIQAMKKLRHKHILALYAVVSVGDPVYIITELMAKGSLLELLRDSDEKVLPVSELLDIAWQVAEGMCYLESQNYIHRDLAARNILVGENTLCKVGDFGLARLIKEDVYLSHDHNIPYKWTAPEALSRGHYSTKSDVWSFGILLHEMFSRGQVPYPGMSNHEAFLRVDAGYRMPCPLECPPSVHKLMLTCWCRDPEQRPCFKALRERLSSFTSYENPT

[36] = test system: Tyrosine-protein kinase ABL1 (Homo sapiens), P00519 [Y253F]; conditions: Compound concentration 1000.0 nM
[37] = target: Eukaryotic translation initiation factor 2-alpha kinase 1 (Homo sapiens) (UniProt Q9BQI3); conditions: Compound concentration 1000.0 nM
Chain of Eukaryotic translation initiation factor 2-alpha kinase 1 (Homo sapiens) (Q9BQI3 whole entry): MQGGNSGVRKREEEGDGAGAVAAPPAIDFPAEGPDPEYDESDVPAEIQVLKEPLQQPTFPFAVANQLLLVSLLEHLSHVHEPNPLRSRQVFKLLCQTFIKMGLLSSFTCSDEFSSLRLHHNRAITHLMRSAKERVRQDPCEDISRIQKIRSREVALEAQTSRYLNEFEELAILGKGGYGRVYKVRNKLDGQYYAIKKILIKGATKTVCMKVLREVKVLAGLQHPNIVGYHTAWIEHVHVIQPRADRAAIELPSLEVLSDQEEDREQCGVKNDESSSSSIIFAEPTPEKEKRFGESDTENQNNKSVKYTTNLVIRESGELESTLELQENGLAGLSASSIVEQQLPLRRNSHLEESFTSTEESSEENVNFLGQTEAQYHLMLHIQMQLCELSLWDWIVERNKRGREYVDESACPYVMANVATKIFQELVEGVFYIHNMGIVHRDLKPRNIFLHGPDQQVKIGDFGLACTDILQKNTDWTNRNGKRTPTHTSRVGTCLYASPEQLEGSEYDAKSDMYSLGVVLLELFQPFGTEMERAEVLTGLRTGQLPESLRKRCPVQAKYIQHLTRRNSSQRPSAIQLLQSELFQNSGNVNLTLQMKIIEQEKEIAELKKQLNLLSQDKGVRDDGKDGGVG

[38] = target: Myosin light chain kinase family member 4 (Homo sapiens) (UniProt Q86YV6); conditions: Compound concentration 1000.0 nM
Chain of Myosin light chain kinase family member 4 (Homo sapiens) (Q86YV6 whole entry, canonical isoform): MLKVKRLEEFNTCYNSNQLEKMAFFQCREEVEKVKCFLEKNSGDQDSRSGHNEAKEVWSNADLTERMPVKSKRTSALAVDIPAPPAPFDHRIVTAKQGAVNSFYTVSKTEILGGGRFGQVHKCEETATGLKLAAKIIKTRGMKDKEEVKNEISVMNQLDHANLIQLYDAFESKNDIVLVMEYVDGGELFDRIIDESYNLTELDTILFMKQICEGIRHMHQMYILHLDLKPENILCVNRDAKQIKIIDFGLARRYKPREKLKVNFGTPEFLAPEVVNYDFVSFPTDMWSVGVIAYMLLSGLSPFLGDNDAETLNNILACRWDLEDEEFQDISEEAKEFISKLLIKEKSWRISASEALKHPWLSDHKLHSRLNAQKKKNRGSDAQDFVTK

[39] = test system: Phosphatidylinositol 4,5-bisphosphate 3-kinase catalytic subunit alpha isoform (Homo sapiens), P42336 [H1047L]; conditions: Compound concentration 1000.0 nM
[40] = target: Ribosomal protein S6 kinase alpha-5 (Homo sapiens) (UniProt O75582); conditions: Compound concentration 1000.0 nM
[41] = target: Cyclin-dependent kinase 4 (Homo sapiens) (UniProt P11802); conditions: Compound concentration 1000.0 nM; remark: listed apart in the source
[42] = target: Epithelial discoidin domain-containing receptor 1 (Homo sapiens) (UniProt Q08345); conditions: Compound concentration 1000.0 nM
Chain of Epithelial discoidin domain-containing receptor 1 (Homo sapiens) (Q08345 whole entry, the tested form may be a part): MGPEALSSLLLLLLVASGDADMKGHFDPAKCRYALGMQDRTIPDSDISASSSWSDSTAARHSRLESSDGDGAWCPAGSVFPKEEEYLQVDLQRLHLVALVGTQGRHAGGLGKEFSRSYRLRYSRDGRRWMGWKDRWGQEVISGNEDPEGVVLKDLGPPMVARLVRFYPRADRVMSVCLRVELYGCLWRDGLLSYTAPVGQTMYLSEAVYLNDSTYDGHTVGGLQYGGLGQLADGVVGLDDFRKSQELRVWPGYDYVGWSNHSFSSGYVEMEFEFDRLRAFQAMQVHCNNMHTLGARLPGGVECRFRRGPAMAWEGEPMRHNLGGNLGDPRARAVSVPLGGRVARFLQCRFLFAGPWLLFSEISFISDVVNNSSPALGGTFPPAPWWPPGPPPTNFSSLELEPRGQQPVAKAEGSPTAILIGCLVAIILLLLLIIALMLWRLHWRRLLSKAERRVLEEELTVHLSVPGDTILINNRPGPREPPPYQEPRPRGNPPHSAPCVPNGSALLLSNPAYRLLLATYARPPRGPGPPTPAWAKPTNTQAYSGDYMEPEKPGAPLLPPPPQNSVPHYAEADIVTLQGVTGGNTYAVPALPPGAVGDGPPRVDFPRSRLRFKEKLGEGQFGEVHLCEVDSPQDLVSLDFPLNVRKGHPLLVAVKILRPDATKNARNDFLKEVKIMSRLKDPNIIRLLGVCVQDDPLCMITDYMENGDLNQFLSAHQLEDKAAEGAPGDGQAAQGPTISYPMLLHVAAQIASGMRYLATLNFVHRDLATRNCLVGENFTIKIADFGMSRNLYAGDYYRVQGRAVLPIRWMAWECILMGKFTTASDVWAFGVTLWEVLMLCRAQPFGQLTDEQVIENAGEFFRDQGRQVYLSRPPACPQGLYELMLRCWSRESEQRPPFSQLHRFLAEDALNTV

[43] = target: Tyrosine-protein kinase Lyn (Homo sapiens) (UniProt P07948); conditions: Compound concentration 1000.0 nM
[44] = target: Mitogen-activated protein kinase 12 (Homo sapiens) (UniProt P53778); conditions: Compound concentration 1000.0 nM
[45] = target: Tyrosine-protein kinase ABL1 (Homo sapiens) (UniProt P00519); conditions: Compound concentration 1000.0 nM

Chain of Mitogen-activated protein kinase kinase kinase 6 (Homo sapiens) (O95382 whole entry): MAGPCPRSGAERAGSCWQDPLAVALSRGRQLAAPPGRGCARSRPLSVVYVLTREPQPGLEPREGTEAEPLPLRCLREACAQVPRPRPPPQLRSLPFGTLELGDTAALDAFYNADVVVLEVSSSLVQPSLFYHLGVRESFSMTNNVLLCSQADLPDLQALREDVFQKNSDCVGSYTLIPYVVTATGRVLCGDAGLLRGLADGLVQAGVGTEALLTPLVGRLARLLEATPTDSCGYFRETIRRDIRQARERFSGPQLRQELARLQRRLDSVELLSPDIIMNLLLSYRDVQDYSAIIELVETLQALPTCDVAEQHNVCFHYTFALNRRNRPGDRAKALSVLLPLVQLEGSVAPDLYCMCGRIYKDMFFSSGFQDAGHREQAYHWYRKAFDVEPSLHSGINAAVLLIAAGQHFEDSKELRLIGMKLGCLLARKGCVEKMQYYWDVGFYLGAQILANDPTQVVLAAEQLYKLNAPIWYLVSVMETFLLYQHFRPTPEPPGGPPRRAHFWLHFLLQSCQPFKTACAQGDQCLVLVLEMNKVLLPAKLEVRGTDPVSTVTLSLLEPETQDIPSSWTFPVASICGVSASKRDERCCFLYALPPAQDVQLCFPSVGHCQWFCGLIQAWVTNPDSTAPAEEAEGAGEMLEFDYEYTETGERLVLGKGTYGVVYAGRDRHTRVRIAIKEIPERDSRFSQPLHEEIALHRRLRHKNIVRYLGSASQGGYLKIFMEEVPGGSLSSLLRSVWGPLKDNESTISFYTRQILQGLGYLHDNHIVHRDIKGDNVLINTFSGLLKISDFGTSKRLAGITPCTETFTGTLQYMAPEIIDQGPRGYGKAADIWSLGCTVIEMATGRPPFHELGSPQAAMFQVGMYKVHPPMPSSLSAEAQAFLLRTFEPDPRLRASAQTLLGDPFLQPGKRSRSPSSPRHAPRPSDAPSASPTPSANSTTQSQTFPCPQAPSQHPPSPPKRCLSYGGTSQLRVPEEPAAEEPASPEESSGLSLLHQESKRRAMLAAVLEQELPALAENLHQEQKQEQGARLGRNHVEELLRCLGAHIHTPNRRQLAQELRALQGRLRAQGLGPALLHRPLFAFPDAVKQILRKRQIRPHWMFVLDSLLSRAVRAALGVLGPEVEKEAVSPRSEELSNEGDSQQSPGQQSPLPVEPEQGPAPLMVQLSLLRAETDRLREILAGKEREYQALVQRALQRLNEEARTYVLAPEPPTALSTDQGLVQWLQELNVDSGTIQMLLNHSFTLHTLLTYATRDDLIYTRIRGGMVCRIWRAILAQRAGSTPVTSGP

CC(=O)c1c(NS(C)(=O)=O)c2cc(-c3ccc(Cl)cc3)c(-c3ccc(Cl)cc3Cl)nc2n(C)c1=O [MRL-CB1-NC]
inactive: residual activity [1] 83% | residual activity [2] 100% | residual activity [3] 100% | residual activity [4] 100% | residual activity [5] 87% | residual activity [6] 89% | residual activity [7] 100% | residual activity [8] 98% | residual activity [9] 90% | residual activity [10] 99% | residual activity [11] 67% | residual activity [12] 100% | residual activity [13] 95% | residual activity [14] 89% | residual activity [15] 100% | residual activity [16] 100% | residual activity [17] 100% | residual activity [18] 100% | residual activity [19] 86% | residual activity [20] 96% | residual activity [21] 100% | residual activity [22] 91% | residual activity [23] 100% | residual activity [24] 85% | residual activity [25] 100% | residual activity [26] 100% | residual activity [27] 96% | residual activity [28] 100% | residual activity [29] 99% | inhibition [30] 0.553% | residual activity [31] 97% | residual activity [32] 94% | residual activity [33] 100% | residual activity [34] 81% | residual activity [35] 100% | residual activity [36] 94% | residual activity [37] 83% | residual activity [38] 100% | residual activity [39] 96% | residual activity [40] 72% | residual activity [41] 63% | residual activity [42] 100% | residual activity [43] 100% | residual activity [44] 100% | residual activity [45] 91%

CC(=O)Nc1c(C(C)=O)c(=O)n(C)c2nc(-c3ccc(Cl)cc3Cl)c(-c3ccc(Cl)cc3)cc12 [NAPHTHYRIDINONE]
inactive: residual activity [1] 94% | residual activity [2] 100% | residual activity [3] 100% | residual activity [4] 100% | residual activity [5] 100% | residual activity [6] 100% | residual activity [7] 100% | residual activity [8] 78% | residual activity [9] 86% | residual activity [10] 100% | residual activity [11] 100% | residual activity [12] 99% | residual activity [13] 100% | residual activity [14] 100% | residual activity [15] 100% | residual activity [16] 100% | residual activity [17] 100% | residual activity [18] 91% | residual activity [19] 89% | residual activity [20] 100% | residual activity [21] 100% | residual activity [22] 100% | residual activity [23] 100% | residual activity [24] 100% | residual activity [25] 100% | residual activity [26] 100% | residual activity [27] 99% | residual activity [28] 100% | residual activity [29] 100% | inhibition [30] -2.68% | residual activity [31] 100% | residual activity [32] 100% | residual activity [33] 100% | residual activity [34] 100% | residual activity [35] 100% | residual activity [36] 96% | residual activity [37] 68% | residual activity [38] 100% | residual activity [39] 95% | residual activity [40] 86% | residual activity [41] 87% | residual activity [42] 100% | residual activity [43] 100% | residual activity [44] 100% | residual activity [45] 85%
